Data: patent publication US9540343B2 (Gilead Sciences, Inc., priority 2011, dated 2017)

Experiments:
[1] = in vitro
How it was run: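 Cytoprotection read-out: CellTiter-Glo chemiluminescence after 5 days at 37 °C of HIV-IIIb-infected MT-4 cells (m.o.i. 0.003) with compound in 10-point 3-fold dilutions, quadruplicate, 10% FBS. Cytotoxicity (CC50) measured identically without virus.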

[2] = system: HIV-IIIb; experiment: Test A: Antiviral assay in MT4 cells; format: cell-based, HIV-1; conditions: MT-4 cells infected with HIV-IIIb, 5 days, CellTiter-Glo; for inhibition at 2 µM: Human immunodeficiency virus 1, IIIB, MT4, 120 h, read-out: % inhibition at 2 μM, percent inhibition of virus-induced cell killing, from dose response curve at 2 uM drug
[3] = human, uninfected MT-4 cells, CC50 (nM), same protocol as Test A, CellTiter-Glo

Compound | CC50 at 5 days [1, 3] [nM] | inhibition at 2 µM [2] [%] | CC50 at 5 days ([1]; human, CC50 (nM), uninfected MT-4 cells, same protocol as Test A, CellTiter-Glo) [nM] | % inhibition at 2 μM ([2]; percent inhibition of virus-induced cell killing, from dose response curve at 2 uM drug) [%]
C=Cc1c(C(F)F)nn(CC(=O)N[C@@H](Cc2cc(F)cc(F)c2)c2ncccc2-c2ccc(F)c(C(N)=O)c2)c1C(F)F [Example 553, (S)-5-(2-(1-(2-(3,5-bis(difluoromethyl)-4-vinyl-1H-pyrazol-1-yl)acetamido)-2-(3,5-difluorophenyl)ethyl)pyridin-3-yl)-2-fluorobenzamide] | 23800 | 11 | – | –
CC(C)(C)OC(=O)N1[C@@H](C(=O)N[C@@H](Cc2cc(F)cc(F)c2)c2ncccc2-c2ccc(F)c(C(N)=O)c2)CC[C@H]1c1ccccc1 [Example 158, (2R,5S)-tert-butyl 2-((S)-1-(3-(3-carbamoyl-4-fluorophenyl)pyridin-2-yl)-2-(3,5-difluorophenyl)ethylcarbamoyl)-5-phenylpyrrolidine-1-carboxylate] | 8500 | 0 | – | –
NC(=O)c1cccc(-c2cccnc2[C@H](Cc2cc(F)cc(F)c2)NC(=O)Cc2ccccc2)c1 [Example 501, (S)-3-(2-(2-(3,5-difluorophenyl)-1-(2-phenylacetamido)ethyl)pyridin-3-yl)benzamide] | 39600 | 11 | – | –
Cc1cc(-c2cccnc2[C@H](Cc2cc(F)cc(F)c2)NC(=O)Cn2nc(C(F)(F)F)c3c2CCCC3)ccc1F [Example 65, (S)—N-(2-(3,5-difluorophenyl)-1-(3-(4-fluoro-3-methylphenyl)pyridin-2-yl)ethyl)-2-(3-(trifluoromethyl)-4,5,6,7-tetrahydro-1H-indazol-1-yl)acetamide] | 11100 | 33 | – | –
NC(=O)c1cc(-c2cccnc2[C@H](Cc2cc(F)cc(F)c2)NC(=O)Cn2nc(C(F)(F)F)c3c2CCC3(F)F)ccc1F [Example 535G, (S)-5-(2-(1-(2-(4,4-difluoro-3-(trifluoromethyl)-5,6-dihydrocyclopenta[c]pyrazol-1(4H)-yl)acetamido)-2-(3,5-difluorophenyl)ethyl)pyridin-3-yl)-2-fluorobenzamide] | 25300 | 9 | – | –
NC(=O)c1cc(-c2cccnc2[C@H](Cc2cc(F)cc(F)c2)NC(=O)Cn2cc(C(F)(F)F)nc2C2CCCC2)ccc1F [Example 107E, (S)-5-(2-(1-(2-(2-cyclopentyl-4-(trifluoromethyl)-1H-imidazol-1-yl)acetamido)-2-(3,5-difluorophenyl)ethyl)pyridin-3-yl)-2-fluorobenzamide] | 42800 | 30 | – | –
CN(C)CCNC(=O)c1cccc(-c2cccnc2[C@H](Cc2cc(F)cc(F)c2)NC(=O)Cn2nc(C(F)(F)F)c3c2CCCC3)c1 [Example 401C, (S)-3-(2-(2-(3,5-difluorophenyl)-1-(2-(3-(trifluoromethyl)-4,5,6,7-tetrahydro-1H-indazol-1-yl)acetamido)ethyl)pyridin-3-yl)-N-(2-(dimethylamino)ethyl)benzamide] | 9720 | 87 | – | –
NC(=O)c1cc(-c2cccnc2[C@H](Cc2cc(F)cc(F)c2)NC(=O)Cn2nc(C(F)F)c3c2C(F)C2CC32)ccc1F (stereo partly drawn) [Example 260, 5-(2-((1S)-1-(2-(3-(difluoromethyl)-5-fluoro-3b,4,4a,5-tetrahydro-1H-cyclopropa[3,4]cyclopenta[1,2-c]pyrazol-1-yl)acetamido)-2-(3,5-difluorophenyl)ethyl)pyridin-3-yl)-2-fluorobenzamide] | 28100 | 54 | – | –
NC(=O)c1cc(-c2cccnc2[C@H](Cc2cc(F)cc(F)c2)NC(=O)Cn2c(=O)[nH]c3ccccc32)ccc1F [Example 318, (S)-5-(2-(2-(3,5-difluorophenyl)-1-(2-(2-oxo-2,3-dihydro-1H-benzo[d]imidazol-1-yl)acetamido)ethyl)pyridin-3-yl)-2-fluorobenzamide] | > 53200 | 27 | – | –
O=C(Cc1c[nH]c2ccc(F)cc12)N[C@@H](Cc1cc(F)cc(F)c1)c1ncccc1-c1cccc(OCc2ccccc2)c1 [Example 92, (S)—N-(1-(3-(3-(benzyloxy)phenyl)pyridin-2-yl)-2-(3,5-difluorophenyl)ethyl)-2-(5-fluoro-1H-indol-3-yl)acetamide] | 10300 | 0 | – | –
O=C(Cn1nc(C(F)F)c2c1C(F)(F)CCC2(F)F)N[C@@H](Cc1cc(F)cc(F)c1)c1ncccc1-c1ccc2c(c1)CNC2=O [Example 508D, (S)-2-(3-(difluoromethyl)-4,4,7,7-tetrafluoro-4,5,6,7-tetrahydro-1H-indazol-1-yl)-N-(2-(3,5-difluorophenyl)-1-(3-(1-oxoisoindolin-5-yl)pyridin-2-yl)ethyl)acetamide] | 5130 | 96 | – | –
NC(=O)c1ccc(-c2cccnc2[C@H](Cc2cc(F)cc(F)c2)NC(=O)Cc2c[nH]c3ccc(O)cc23)cc1 [Example 42, (S)-4-(2-(2-(3,5-difluorophenyl)-1-(2-(5-hydroxy-1H-indol-3-yl)acetamido)ethyl)pyridin-3-yl)benzamide] | > 53000 | 96 | – | –
NC(=O)c1cccc(-c2cncnc2[C@H](Cc2cc(F)cc(F)c2)NC(=O)Cc2c[nH]c3ccc(O)cc23)c1 [Example 327, (S)-3-(4-(2-(3,5-difluorophenyl)-1-(2-(5-hydroxy-1H-indol-3-yl)acetamido)ethyl)pyrimidin-5-yl)benzamide] | > 53200 | 94 | – | –
NC(=O)c1cc(-c2cccnc2[C@H](Cc2cc(F)cc(F)c2)NC(=O)Cn2c3c(c4ccccc42)C(=O)CCC3)ccc1F [Example 574D, (S)-5-(2-(2-(3,5-difluorophenyl)-1-(2-(4-oxo-3,4-dihydro-1H-carbazol-9(2H)-yl)acetamido)ethyl)pyridin-3-yl)-2-fluorobenzamide] | – | 24 | 52500 | –
NC(=O)c1cccc(-c2cccnc2[C@H](Cc2cc(F)cc(F)c2)NC(=O)CC2C(=O)Nc3ccccc32)c1 (stereo partly drawn) [Example 191, 3-(2-((1S)-2-(3,5-difluorophenyl)-1-(2-(2-oxoindolin-3-yl)acetamido)ethyl)pyridin-3-yl)benzamide] | > 50900 | – | – | 19
CS(=O)(=O)Nc1ccc(-c2cccnc2[C@H](Cc2cc(F)cc(F)c2)NC(=O)Cn2nc(C(F)F)c3c2C(F)(F)C2CC32)cc1 (stereo partly drawn) [Example 433, (S)—N-(1-(3-(4-(methylsulfonamido)phenyl)-pyridin-2-yl)-2-(3,5-difluorophenyl)ethyl)-2-(3-(difluoromethyl)-5,6-dihydro-4,5-(methano)-6,6-difluoro-cyclopenta[c]pyrazol-1(4H)-yl)acetamide] | 20800 | 16 | – | –
O=C(Cn1nc(C(F)F)c2c1C(F)(F)C1CC21)N[C@@H](Cc1cc(F)cc(F)c1)c1ncncc1-c1cccc2[nH]cnc12 (stereo partly drawn) [Example 127C, N—((S)-1-(5-(1H-benzo[d]imidazol-4-yl)pyrimidin-4-yl)-2-(3,5-difluorophenyl)ethyl)-2-(3-(difluoromethyl)-5,5-difluoro-3b,4,4a,5-tetrahydro-1H-cyclopropa[3,4]cyclopenta[1,2-c]pyrazol-1-yl)acetamide] | 31900 | 97 | – | –
N#Cc1nn(CC(=O)N[C@@H](Cc2cc(F)cc(F)c2)c2ncccc2-c2ccc(F)c(C(N)=O)c2)c2c1CCC2 [Example 211C, (S)-5-(2-(1-(2-(3-cyano-5,6-dihydrocyclopenta[c]pyrazol-1(4H)-yl)acetamido)-2-(3,5-difluorophenyl)ethyl)pyridin-3-yl)-2-fluorobenzamide] | 36100 | 83 | – | –
